For experiment [1], the system named is Staphylococcus epidermidis. Format: functional, ATCC 12228.
Description: Antimicrobial activity against Staphylococcus epidermidis ATCC 12228 assessed as ratio of maximum zone of inhibition to concentration required to reach half maximum zone of inhibition after 24 hrs
A further experiment relates to Escherichia coli. As to the kind of experiment: Antimicrobial activity against Escherichia coli K-12 C600 assessed as ratio of maximum zone of inhibition to concentration required to reach half maximum zone of inhibition after 24 hrs. Format: functional.

In the case of `CCCC[N+](CCCC)(CCCC)CCCC.Cc1ccc(S(=O)(=O)[O-])cc1`, the ZImax/KZI came to 8.55 mm microL/micromol in experiment [1] and 0 mm microL/micromol in the experiment on Escherichia coli.
As for `CC(O)C(=O)[O-].CCCC[N+](CCCC)(CCCC)CCCC`, the ZImax/KZI in experiment [1] is recorded as 103.09 mm microL/micromol; with Escherichia coli, 0 mm microL/micromol.
On the same counts, the results for `CCCC[N+](CCCC)(CCCC)CCCC.O=[N+]([O-])[O-]` [BIS(TETRABUTYLAMMONIUM)MONONITRATE] are 30.67 mm microL/micromol and 0.333 mm microL/micromol.
Take `Br.Br.CCCC[N+](CCCC)(CCCC)CCCC.[Br-]` [MONO(TETRABUTYLAMMONIUM)TRIBROMIDE]: the ZImax/KZI worked out at 48.08 mm microL/micromol in experiment [1] and 37.59 mm microL/micromol in the experiment on Escherichia coli.
Regarding `CC(=O)[O-].CCCC[N+](CCCC)(CCCC)CCCC` [TETRABUTYLAMMONIUM ACETATE], the ZImax/KZI in experiment [1] was found to be 37.88 mm microL/micromol; with Escherichia coli, 4.2 mm microL/micromol.
For `CCCC[N+](CCCC)(CCCC)CCCC.O=C([O-])c1ccccc1` [TETRABUTYLAMMONIUM BENZOATE] the same measures were 39.81 mm microL/micromol and 0.333 mm microL/micromol.
`CCCC[N+](CCCC)(CCCC)CCCC.[Br-]` [TETRABUTYLAMMONIUM BROMIDE]: the ZImax/KZI in experiment [1] came out at 16.69 mm microL/micromol; in the experiment on Escherichia coli it was 0.516 mm microL/micromol.
On the same counts, the results for `CCCC[N+](CCCC)(CCCC)CCCC.O=P([O-])(O)O` [TETRABUTYLAMMONIUM DIHYDROGENPHOSPHATE] are 23.58 mm microL/micromol and 0 mm microL/micromol.
On the same counts, the results for `CCCC[N+](CCCC)(CCCC)CCCC.[F-]` [TETRABUTYLAMMONIUM FLUORIDE] are 15.82 mm microL/micromol and 0.842 mm microL/micromol.
In the case of `CCCC[N+](CCCC)(CCCC)CCCC.O=S(=O)([O-])O` [TETRABUTYLAMMONIUM HYDROGENSULFATE], the values for the ZImax/KZI (in experiment [1]; in the experiment with Escherichia coli) were 84.03 mm microL/micromol and 4.98 mm microL/micromol, respectively.
`CCCC[N+](CCCC)(CCCC)CCCC.[OH-]` [TETRABUTYLAMMONIUM HYDROXIDE]: the figures for the ZImax/KZI (in experiment [1]; with Escherichia coli) were 27.17 mm microL/micromol and 4.06 mm microL/micromol, respectively.
For `CCCC[N+](CCCC)(CCCC)CCCC.[I-]` [TETRABUTYLAMMONIUM IODIDE] the same measures were 140.85 mm microL/micromol and 0.381 mm microL/micromol.
For `CCCC[N+](CCCC)(CCCC)CCCC.CS(=O)(=O)[O-]` [TETRABUTYLAMMONIUM METHANESULFONATE], the results for the ZImax/KZI (in experiment [1]; in the experiment on Escherichia coli) were 23.53 mm microL/micromol and 0.167 mm microL/micromol, respectively.
For `CCCC[N+](CCCC)(CCCC)CCCC.[O-][Cl+3]([O-])([O-])[O-]` [TETRABUTYLAMMONIUM PERCHLORATE] the same measures were 14.77 mm microL/micromol and 0 mm microL/micromol.
Regarding `CCCC[N+](CCCC)(CCCC)CCCC.O=P[O-]` [TETRABUTYLAMMONIUM PHOSPHENITE], the results for the ZImax/KZI (in experiment [1]; with Escherichia coli) were 52.08 mm microL/micromol and 0.408 mm microL/micromol, respectively.
Regarding `CCCC[N+](CCCC)(CCCC)CCCC.F[B-](F)(F)F` [TETRABUTYLAMMONIUM TETRAFLUOROBORATE], the ZImax/KZI in experiment [1] was found to be 25.71 mm microL/micromol; in the experiment on Escherichia coli, 0.499 mm microL/micromol.
On to `CCCC[N+](CCCC)(CCCC)CCCC.N#C[S-]` [TETRABUTYLAMMONIUM THIOCYANATE], for which the results for the ZImax/KZI (in experiment [1]; in the experiment with Escherichia coli) were 11.59 mm microL/micromol and 6.28 mm microL/micromol, respectively.
On to `CCCC[N+](CCCC)(CCCC)CCCC.O=S(=O)([O-])C(F)(F)F` [TETRABUTYLAMMONIUM TRIFLUOROMETHANESULFONATE], for which the ZImax/KZI in experiment [1] was 64.94 mm microL/micromol; in the experiment on Escherichia coli, 0.067 mm microL/micromol.
Consider `CCCC[N+](CCCC)(CCCC)CCCC.[Cl-]` [TETRABUTYLAMMONIUM], for which the ZImax/KZI is 23.58 mm microL/micromol in experiment [1] and 0.382 mm microL/micromol in the experiment on Escherichia coli.

These data come from ChEMBL document CHEMBL1154216, “Development of a novel expression, ZI MAX/K ZI, for determination of the counter-anion effect on the antimicrobial activity of tetrabutylammonium salts” (2009).
